Test results taken from ChEMBL document CHEMBL1126321, “Antitumor agents. 123. Synthesis and human DNA topoisomerase II inhibitory activity of 2'-chloro derivatives of etoposide and 4 beta-(arylamino)-4'-O-demethylpodophyllotoxins” (J Med Chem, 1992).

How the values were obtained:
Nucleic Acid = assay: Effect on cellular protein DNA complex formation(%) at 10 uM in comparison with etoposide; assay type: functional
[1] = Concentration required for 50% reduction in KB cell number after 3-day incubation; assay type: functional, cell-based, Homo sapiens
[2] = biological target: T1, DNA topoisomerase II (Homo sapiens) (UniProt P11388+Q02880); assay: Evaluated for the inhibition of human DNA Topoisomerase II; assay type: protein assay
[3] = biological target: T1, DNA topoisomerase II (Homo sapiens); assay: Compound was evaluated for the inhibition of human DNA Topoisomerase II; assay type: protein assay

| SMILES | Complex formation (Nucleic Acid) | IC50 [1] | ID50 [2] | ID50 [3] |
| --- | --- | --- | --- | --- |
| COc1cc([C@@H]2c3cc4c(cc3[C@@H](O[C@@H]3O[C@@H]5CO[C@@H](C)O[C@H]5[C@H](O)[C@H]3O)[C@H]3COC(=O)[C@H]23)OCO4)cc(OC)c1O [ETOPOSIDE] | 100% | 0.2 µM |  |  |
| COc1cc([C@@H]2c3cc4c(cc3[C@@H](Nc3ccc(Br)cc3)[C@H]3COC(=O)[C@H]23)OCO4)c(Cl)c(OC)c1O | 0% | > 6.8 µM | > 100 µM |  |
| COc1cc([C@@H]2c3cc4c(cc3[C@@H](Nc3ccc([N+](=O)[O-])cc3)[C@H]3COC(=O)[C@H]23)OCO4)cc(OC)c1O | 323% | 0.49 µM |  |  |
| COc1cc([C@@H]2c3cc4c(cc3[C@@H](O[C@@H]3O[C@@H]5CO[C@@H](C)O[C@H]5[C@H](O)[C@H]3O)[C@H]3COC(=O)[C@H]23)OCO4)c(Cl)c(OC)c1O | 6.1% | > 6.4 µM | > 50 µM |  |
| COc1cc([C@@H]2c3cc4c(cc3[C@@H](Nc3ccc5c(c3)OCO5)[C@H]3COC(=O)[C@H]23)OCO4)c(Cl)c(OC)c1O | 0% | > 7.2 µM | > 100 µM |  |
| COc1cc([C@@H]2c3cc4c(cc3[C@@H](Nc3cccc(O)c3)[C@H]3COC(=O)[C@H]23)OCO4)cc(OC)c1O | 290% | 0.45 µM |  |  |
| COc1cc([C@@H]2c3cc4c(cc3[C@@H](Nc3ccc(F)cc3)[C@H]3COC(=O)[C@H]23)OCO4)cc(OC)c1O | 213% | 0.24 µM |  |  |
| COc1cc([C@@H]2c3cc4c(cc3[C@@H](Nc3ccc(Cl)cc3)[C@H]3COC(=O)[C@H]23)OCO4)c(Cl)c(OC)c1O | 0% | > 7.3 µM | > 100 µM |  |
| COc1cc([C@@H]2c3cc4c(cc3[C@@H](Nc3cccc(O)c3)[C@H]3COC(=O)[C@H]23)OCO4)c(Cl)c(OC)c1O | 0% | 5.7 µM | > 100 µM |  |
| COc1cc([C@@H]2c3cc4c(cc3[C@@H](Nc3ccc(F)cc3)[C@H]3COC(=O)[C@H]23)OCO4)c(Cl)c(OC)c1O | 0% | > 7.5 µM | > 100 µM |  |
| COc1cc([C@@H]2c3cc4c(cc3[C@@H](Nc3ccc5c(c3)OCCO5)[C@H]3COC(=O)[C@H]23)OCO4)c(Cl)c(OC)c1O | 0% | > 7 µM | > 100 µM |  |
| COc1cc([C@@H]2c3cc4c(cc3[C@@H](Nc3cccc([N+](=O)[O-])c3)[C@H]3COC(=O)[C@H]23)OCO4)c(Cl)c(OC)c1O | 0% | > 7.2 µM | > 100 µM |  |
| COc1cc([C@@H]2c3cc4c(cc3[C@@H](Nc3ccc([N+](=O)[O-])cc3)[C@H]3COC(=O)[C@H]23)OCO4)c(Cl)c(OC)c1O | 0% | > 7.2 µM |  | > 100 µM |
| COc1cc([C@@H]2c3cc4c(cc3[C@@H](Nc3ccc5c(c3)OCO5)[C@H]3COC(=O)[C@H]23)OCO4)cc(OC)c1O | 279% | 0.68 µM | 10 µM |  |
| COc1cc([C@@H]2c3cc4c(cc3[C@@H](O)[C@H]3COC(=O)[C@H]23)OCO4)c(Cl)c(OC)c1O | 15.6% | > 22.3 µM | > 50 µM |  |
